From patent US8354269B2 (priority 2008, dated 2013)
Read-outs that look alike come from different tables or passages of the source.

Legend:
[1] = system: Clostridium autoethanogenum culture 19630; conditions: NiCl2 1 mM, fructose 3 g/L
Description: (§1) To determine the cell density in these experiments, the absorbance of the samples was measured at 600 nm (spectrophotometer) and the dry mass determined by extrapolation.
(§2) High Performance Liquid Chromatography (HPLC) was used to characterize the level of substrates and products such as for acetate, ethanol, fructose, xylose and pyruvate. HPLC System Agilent 1100 Series. Mobile Phase: 0.0025N Sulphuric Acid. Flow and pressure: 0.800 mL/min. Column: Alltech IOA; Catalog #9648, 150×6.5 mm, particle size 5 μm. Temperature of column: 60° C. Detector: Refractive Index. Temperature of detector: 45° C.
(§3) Method for sample preparation: 400 μL of sample+50 μL of 0.15M ZnSO4+50 μL of 0.15M Ba(OH)2 into an Eppendorf tube. Centrifuge 10 min at 12,000 rpm, 4° C. Transfer 200 μL supernatant into an HPLC vial and inject into the HPLC instrument 5 μL.
Sterile 234 ml serum bottles were purged three times with 95% CO, 5% CO2 gas and then evacuated to a vacuum of −5 psi. The serum bottles were charged with 25 ml of LM33 media. NiCl2 solution (to final concentrations of 1 mM) and fructose (3 g/L) were added to the serum bottle which was inoculated with 1 ml of an actively growing Clostridium autoethanogenum culture 19630 from a continuous bioreactor. The headspace of the serum bottle was then filled with CO containing gas to 30 psi (composition 100% CO). The serum bottles were incubated at 37° C. and continuously agitated. Samples were taken at intervals and the headspace was purged and refreshed up to 30 psi following sampling.

[2] = system: Clostridium autoethanogenum culture 19630; conditions: 54 hours
Description: as §1
Each well was inoculated with 50 μL of an actively growing Clostridium autoethanogenum culture 19630 from a continuous bioreactor. The wells were then mixed thoroughly and 200 ul from each well was added to a 96 well tissue culture plate. The plate was then sealed with a gas permeable sealing film and placed into an anaerobic pressure vessel. This vessel was pressurized to 30 psi with 100% CO gas and placed on an orbital shaker (150 rpm) in an incubated chamber at 37° C. Samples were analyzed at 54 hours after incubation.

[3] = system: Clostridium autoethanogenum DSM10061
Description: as §2, §3
The serum bottles were charged with CO containing gas (2% H2; 30% N2; 47% CO; 21% CO2) to an overpressure of 30 psi. The gas was purged and refreshed at time=54 h. Growth was monitored by measuring the optical density at 600 nm (OD600nm) and metabolites were detected by HPLC.

[4] = system: Clostridium autoethanogenum culture 19630
Description: Sterile 234 ml serum bottles were purged three times with 95% CO, 5% CO2 gas and then evacuated to a vacuum of −5 psi. The serum bottles were charged with 25 ml of LM33 media. Additional NiCl2 solutions were optionally added to the serum bottle (to final concentrations of 0.1 mM and 1 mM) which were inoculated with 1 ml of an actively growing Clostridium autoethanogenum culture 19630 from a continuous bioreactor. The headspace of the serum bottle was then filled with CO containing gas to 30 psi (composition 100% CO). The serum bottles were incubated at 37° C. and continuously agitated. Samples were taken at intervals and the headspace was purged and refreshed up to 30 psi following sampling.

**Q.** What does the source list for `[Cl][Ni][Cl]` [Nickel, nickel chloride]?
**A.** Acetic Acid ([1]; 12 h after inoculation): 0.42 g/L; Cell density ([1]; 12 h after inoculation): 0.16 g/L; Ethanol ([1]; 12 h after inoculation): 0.25 g/L; Fructose ([1]; 12 h after inoculation): 2.87 g/L; Acetic Acid ([1]; 18 h after inoculation): 0.48 g/L; Cell density ([1]; 18 h after inoculation): 0.20 g/L; Ethanol ([1]; 18 h after inoculation): 0.61 g/L; Fructose ([1]; 18 h after inoculation): 2.4 g/L; Acetic Acid ([1]; 30 h after inoculation): 0.45 g/L; Cell density ([1]; 30 h after inoculation): 0.73 g/L; Ethanol ([1]; 30 h after inoculation): 4.19 g/L; Fructose ([1]; 30 h after inoculation): 0 g/L; Acetic Acid ([1]; 80 h after inoculation): 0.38 g/L; Cell density ([1]; 80 h after inoculation): 0.98 g/L; Ethanol ([1]; 80 h after inoculation): 7.60 g/L; Fructose ([1]; 80 h after inoculation): 0 g/L; Acetic Acid ([1]; 96 h after inoculation): 0.31 g/L; Cell density ([1]; 96 h after inoculation): 1.07 g/L; Ethanol ([1]; 96 h after inoculation): 7.81 g/L; Fructose ([1]; 96 h after inoculation): 0 g/L; Cell density ([2]; Additional Nickel 100 μM): 0.23 g/L; Cell density ([2]; Additional Nickel 200 μM): 0.25 g/L; Cell density ([2]; Additional Nickel 300 μM): 0.28 g/L; Cell density ([2]; Additional Nickel 400 μM): 0.30 g/L; Cell density ([2]; Additional Nickel 500 μM): 0.35 g/L; Cell density ([2]; Additional Nickel 600 μM): 0.31 g/L; Cell density ([2]; Additional Nickel 700 μM): 0.37 g/L; Cell density ([2]; Additional Nickel 800 μM): 0.45 g/L; Cell density ([2]; Additional Nickel 900 μM): 0.43 g/L; Cell density ([2]; Additional Nickel 1000 μM): 0.39 g/L; Ethanol ([3]; Nickel 200 μM, 0 h): 0.22 ± 0.02 g/L; OD600 nm ([3]; Nickel 200 μM, 0 h): 0.009 ± 0.001; Ethanol ([3]; Nickel 200 μM, 30 h): 0.22 ± 0.03 g/L; OD600 nm ([3]; Nickel 200 μM, 30 h): 0.038 ± 0.010; Acetate ([3]; Nickel 200 μM, 54 h): 0.12 ± 0.02 g/L; Ethanol ([3]; Nickel 200 μM, 54 h): 0.23 ± 0.03 g/L; OD600 nm ([3]; Nickel 200 μM, 54 h): 0.052 ± 0.022; Acetate ([3]; Nickel 200 μM, 102 h): 0.83 ± 0.53 g/L; Ethanol ([3]; Nickel 200 μM, 102 h): 0.23 ± 0.01 g/L; OD600 nm ([3]; Nickel 200 μM, 102 h): 0.223 ± 0.141; Acetate ([3]; Nickel 200 μM, 127 h): 1.48 ± 0.54 g/L; Ethanol ([3]; Nickel 200 μM, 127 h): 0.30 ± 0.19 g/L; OD600 nm ([3]; Nickel 200 μM, 127 h): 0.333 ± 0.131; Ethanol ([3]; Nickel 400 μM, 0 h): 0.22 ± 0.02 g/L; OD600 nm ([3]; Nickel 400 μM, 0 h): 0.010 ± 0.001; Ethanol ([3]; Nickel 400 μM, 30 h): 0.22 ± 0.02 g/L; OD600 nm ([3]; Nickel 400 μM, 30 h): 0.065 ± 0.002; Acetate ([3]; Nickel 400 μM, 54 h): 0.18 ± 0.10 g/L; Ethanol ([3]; Nickel 400 μM, 54 h): 0.21 ± 0.02 g/L; OD600 nm ([3]; Nickel 400 μM, 54 h): 0.087 ± 0.011; Acetate ([3]; Nickel 400 μM, 102 h): 1.05 ± 0.85 g/L; Ethanol ([3]; Nickel 400 μM, 102 h): 0.68 ± 0.41 g/L; OD600 nm ([3]; Nickel 400 μM, 102 h): 0.337 ± 0.129; Acetate ([3]; Nickel 400 μM, 127 h): 1.44 ± 0.83 g/L; Ethanol ([3]; Nickel 400 μM, 127 h): 0.68 ± 0.21 g/L; OD600 nm ([3]; Nickel 400 μM, 127 h): 0.452 ± 0.200; Ethanol ([3]; Nickel 700 μM, 0 h): 0.23 ± 0.03 g/L; OD600 nm ([3]; Nickel 700 μM, 0 h): 0.011 ± 0.001; Ethanol ([3]; Nickel 700 μM, 30 h): 0.24 ± 0.02 g/L; OD600 nm ([3]; Nickel 700 μM, 30 h): 0.238 ± 0.023; Acetate ([3]; Nickel 700 μM, 54 h): 0.25 ± 0.01 g/L; Ethanol ([3]; Nickel 700 μM, 54 h): 0.25 ± 0.03 g/L; OD600 nm ([3]; Nickel 700 μM, 54 h): 0.292 ± 0.013; Acetate ([3]; Nickel 700 μM, 102 h): 0.94 ± 0.14 g/L; Ethanol ([3]; Nickel 700 μM, 102 h): 0.73 ± 0.05 g/L; OD600 nm ([3]; Nickel 700 μM, 102 h): 0.714 ± 0.060; Acetate ([3]; Nickel 700 μM, 127 h): 0.95 ± 0.16 g/L; Ethanol ([3]; Nickel 700 μM, 127 h): 0.72 ± 0.03 g/L; OD600 nm ([3]; Nickel 700 μM, 127 h): 0.620 ± 0.021; Ethanol ([3]; Nickel 1000 μM, 0 h): 0.29 ± 0.04 g/L; OD600 nm ([3]; Nickel 1000 μM, 0 h): 0.010 ± 0.001; Ethanol ([3]; Nickel 1000 μM, 30 h): 0.28 ± 0.02 g/L; OD600 nm ([3]; Nickel 1000 μM, 30 h): 0.268 ± 0.080; Acetate ([3]; Nickel 1000 μM, 54 h): 0.38 ± 0.01 g/L; Ethanol ([3]; Nickel 1000 μM, 54 h): 0.26 ± 0.03 g/L; OD600 nm ([3]; Nickel 1000 μM, 54 h): 0.389 ± 0.071; Acetate ([3]; Nickel 1000 μM, 102 h): 1.57 ± 0.21 g/L; Ethanol ([3]; Nickel 1000 μM, 102 h): 1.02 ± 0.09 g/L; OD600 nm ([3]; Nickel 1000 μM, 102 h): 0.720 ± 0.105; Acetate ([3]; Nickel 1000 μM, 127 h): 1.78 ± 0.11 g/L; Ethanol ([3]; Nickel 1000 μM, 127 h): 0.99 ± 0.11 g/L; OD600 nm ([3]; Nickel 1000 μM, 127 h): 0.674 ± 0.098; total microbial cell density ([4]; 0.1 mM nickel above LM33): 1.1 g/L; total microbial cell density ([4]; 1 mM nickel above LM33): 1.2 g/L; Acetate ([4]; Additional Nickel 0.1 mM, 18 h): 0.57 g/L; Cell density ([4]; Additional Nickel 0.1 mM, 18 h): 0.14 g/L; Ethanol ([4]; Additional Nickel 0.1 mM, 18 h): 0.37 g/L; Acetate ([4]; Additional Nickel 0.1 mM, 30 h): 0.61 g/L; Cell density ([4]; Additional Nickel 0.1 mM, 30 h): 0.54 g/L; Ethanol ([4]; Additional Nickel 0.1 mM, 30 h): 2.63 g/L; Acetate ([4]; Additional Nickel 0.1 mM, 80 h): 0.38 g/L; Cell density ([4]; Additional Nickel 0.1 mM, 80 h): 1.08 g/L; Ethanol ([4]; Additional Nickel 0.1 mM, 80 h): 7.14 g/L; Acetate ([4]; Additional Nickel 1 mM, 18 h): 0.48 g/L; Cell density ([4]; Additional Nickel 1 mM, 18 h): 0.18 g/L; Ethanol ([4]; Additional Nickel 1 mM, 18 h): 0.47 g/L; Acetate ([4]; Additional Nickel 1 mM, 30 h): 0.85 g/L; Cell density ([4]; Additional Nickel 1 mM, 30 h): 0.59 g/L; Ethanol ([4]; Additional Nickel 1 mM, 30 h): 2.59 g/L; Acetate ([4]; Additional Nickel 1 mM, 80 h): 0.66 g/L; Cell density ([4]; Additional Nickel 1 mM, 80 h): 1.23 g/L; Ethanol ([4]; Additional Nickel 1 mM, 80 h): 9.04 g/L
